Patent publication US20050187288A1, “Beta-lapachone and methods of treating cancer” (priority 2004, published 2005)
Where two headings read alike, the source gives them in different places.

Columns and labels:
in vivo = settings: Sprague-Dawley, rat, 10 mg/kg, AUC* (estimated from toxicology experiments)
CAOV-3 [1] = settings: human, 4 h
Procedure: (§2) Control plates received the same volume of DMSO alone. After a 4 hour exposure the drug was carefully removed, and drug-free medium could be added. […] Colonies of greater than 50 cells were scored as survivors. Cells were maintained at 37° C. in 5% CO2 in complete humidity.

[2] = Study 3A: neuropharmacological profile in rats
Procedure: In Study No. 3A, four groups of ten male Sprague-Dawley rats were dosed with a single 1 hour intravenous infusion via the tail vein at doses of 0 (vehicle), 5, 25, and 60 mg/kg as shown in Table 12.
Following dosing, animals were placed in a fixed environment consisting of a Plexiglas square, fitted with a lid and placed on absorbent paper to detect excretions.
Body temperatures were taken on all animals at 15 minutes following dose administration.

[3] = system: PaCa-2 pancreatic cancer cells; experiment: cells; settings: Homo sapiens
[4] = system: DU145 human prostate cancer; experiment: Human prostate cancer xenograft model; format: in vivo, mice
Procedure: Tumors were measured throughout treatment and the post-treatment observation period. […] Tumor nodules were measured during the treatment period (Days 21-43) and at the end of observation (Day 56). Dose-related inhibition of tumor growth is seen, with little tumor growth following completion of treatment. […] Tumor nodules were measured pre-treatment (“Pre-Tx”), at the end of the 30-day treatment period (“Post-Tx”) and at the conclusion of the post treatment observation period 14 days following termination of treatment (“Post-Exp't”).

[5] = in vivo
DU-145 = settings: human, 4 h
Procedure: as §2

ASPC-1 = experiment: Colony formation assay, combination with Taxol; format: cell-based, human; settings: β-Lapachone 4 μM, Taxol 0.2 μM, 4 hours
Procedure: Control wells were treated with equivalent volumes of DMSO. After 4 hours cells were rinsed and fresh medium is added. Cultures were observed daily for 10-20 days and then were fixed and stained. […] DNA laddering formation and annexin staining indicate that cell death is due to apoptosis.

[6] = Pharmacokinetics after intravenous infusion in rats, HPBCD formulation; settings: male, Sprague-Dawley, rat, plasma
[7] = system: human Panc-1 pancreatic cancer cells; format: in vivo, mice
Procedure: The animals were randomized into three groups. […] Mean tumor volume was then analyzed.

[8] = Pharmacokinetic data from toxicology study in dogs, one-hour intravenous infusion; format: in vivo; settings: both sexes, dog
Procedure: In this study, two dogs (one male, one female) were administered β-lapachone intravenously in the HPBCD formulation over one hour. The animals received escalating doses of 5, 15, 30 and 45 mg/kg, with three to four days between doses. The mean response of the two dogs is shown at each dose level. […] Doses up to and including 30 mg/kg produced no toxicity.

PC-3 = settings: human, 4 h
Procedure: as §2

E2F-1 = E2F-1 protein expression by Western blot in Paca-2 cells; format: cell-based, human; settings: 0.5 hours exposure
Procedure: Cells were harvested and whole cell lysates were prepared and resolved by SDS/PAGE, then Western blots were prepared using E2F-1 antibody obtained from Santa Cruz Biotechnology (Santa Cruz, Calif.) and an enhanced chemiluminescence assay system (Amersham Pharmacia).

HCT-116 = experiment: cells; settings: Homo sapiens, HCT-116, read-out: LC50 (Replicate Results), HCT-116, 4 hour exposure, colonies after 14-21 days
Procedure: as §2
Control plates received the same volume of DMSO alone. After a 4 hour exposure the drug was carefully removed, and drug-free medium was added. […] Colonies of greater than 50 cells were scored as survivors. Cells were maintained at 37° C. in 5% CO2 in complete humidity. Each “Replicate Result” represents the result of a separate experiment.

CAOV-3 [9] = experiment: cells; settings: Homo sapiens, Caov-3, read-out: LC50 (Replicate Results), CAOV-3, 4 hour exposure, colonies after 14-21 days
Procedure: as §2

[10] = Reversibility of binding to human plasma proteins; format: in vitro ADME; settings: pooled human plasma, dialyzed three times against fresh plasma, 37° C., read-out: fraction in plasma reversibly bound to plasma proteins
Procedure: The spiked plasma was incubated at 37° C. for 1 h, and then was dialyzed three times against fresh plasma aliquots at 37° C.

SK-OV-3 = experiment: cells; settings: Homo sapiens, SK-OV-3, read-out: LC50 (Replicate Results), SK-OV-3, 4 hour exposure, colonies after 14-21 days
Procedure: as §2

[11] = Study 2A: repetitive weekly intravenous toxicity study in dogs; settings: for decreased hemoglobin: Day 23
Source text: On Day 23 of the study, 4 animals/sex/group were euthanized (barbiturate overdose) followed by exsanguination and subjected to necropsy as described below.

[12] = Binding to human plasma proteins by equilibrium dialysis; format: in vitro ADME; settings: human, pooled human plasma; 2-25 μM, 37° C.; read-out: protein binding (converted)
Procedure: (§1) The plasma aliquots were incubated at 37° C. for 1 h, and then were dialyzed against PBS buffer at 37° C. for 4 h using Dianorm Equilibrium Dialysers.

human plasma proteins = experiment: as above; format: in vitro ADME; settings: 2-25 μM, 37° C.
Procedure: as §1

CC1(C)CCC2=C(O1)c1ccccc1C(=O)C2=O [β-lapachone, 3,4-dihydro-2,2-dimethyl-2H-naphtho [1,2-b]pyran-5,6-dione]
AUC (in vivo): 2640 ng·h/mL | CC50 (CAOV-3 [1]): 1440 nM | animals that died during the infusion ([2]; 60 mg/kg at 6 mg/ml): Five of the ten animals | mean body temperature ([2]; 60 mg/kg, 15-minutes post dosing): 34.6 °C | NOEL ([2]; single intravenous dose, male Sprague Dawley rats): 25 mg/kg | CC50 ([3]; PaCa-2, read-out: LC50, PaCa-2 Clone A surviving >LC99): 2590 nM | CC50 ([3]; PaCa-2, read-out: LC50, PaCa-2 Clone B surviving >LC99): 2720 nM | CC50 ([3]; PaCa-2, read-out: LC50, PaCa-2 WT): 2690 nM | tumor growth ([4]; 100 mg/kg in Lipiodol IP q3d, 30-day treatment): greater suppression of tumor growth | tumor growth ([4]; 25 and 50 mg/kg in Lipiodol IP q3d): inhibited tumor growth in a dose-dependent manner | doses without significant toxicity ([5]; Sprague-Dawley (Hsd:SD) rats, Beagle dogs, rat and dog, iv, 4 weeks): less than 270 mg/m^2 | bone marrow suppression, gastrointestinal toxicity, alopecia [5]: no evidence of bone marrow suppression, gastrointestinal toxicity or alopecia | major organ toxicity (myelosuppression, hepatic, renal, neurotoxicity, cardiotoxicity) [5]: No evidence of major organ toxicity | CC50 (DU-145): 1210 nM | Colonies, Percentage of control (ASPC-1): 45 (1.9) Percentage of control | half-life ([6]; intravenous, elimination half-life, one-hour infusion, doses in the range 5-15 mg/kg): 270 to 420 min | AUC ([6]; iv, 5 mg/kg, 1-Hour Infusion): 1280 ± 118 ng·h/mL | AUC ([6]; iv, 5 mg/kg, 10-Min. Infusion): 1200 ± 313 ng·h/mL | Cmax ([6]; iv, 5 mg/kg, 1-Hour Infusion): 363 ± 21 ng/mL | Cmax ([6]; iv, 5 mg/kg, 10-Min. Infusion): 834 ± 116 ng/mL | half-life ([6]; iv, 5 mg/kg, T1/2, 1-Hour Infusion): 258 ± 36 min | half-life ([6]; iv, 5 mg/kg, T1/2, 10-Min. Infusion): 216 ± 54 min | Vd ([6]; iv, 5 mg/kg, Vdss, 1-Hour Infusion): 19.6 ± 0.8 L/kg | Vd ([6]; iv, 5 mg/kg, Vdss, 10-Min. Infusion): 20 ± 6.3 L/kg | AUC ([6]; iv, 10 mg/kg, 1-Hour Infusion): 2640 ± 1020 ng·h/mL | Cmax ([6]; iv, 10 mg/kg, 1-Hour Infusion): 707 ± 134 ng/mL | half-life ([6]; iv, 10 mg/kg, T1/2, 1-Hour Infusion): 294 ± 96 min | Vd ([6]; iv, 10 mg/kg, Vdss, 1-Hour Infusion): 21 ± 5.3 L/kg | AUC ([6]; iv, 15 mg/kg, 1-Hour Infusion): 4900 ± 54 ng·h/mL | Cmax ([6]; iv, 15 mg/kg, 1-Hour Infusion): 896 ± 130 ng/mL | half-life ([6]; iv, 15 mg/kg, T1/2, 1-Hour Infusion): 420 ± 96 min | Vd ([6]; iv, 15 mg/kg, Vdss, 1-Hour Infusion): 26.4 ± 5.7 L/kg | Vd ([6]; iv, volume of distribution, intravenous infusion): 20 to 26 L/kg | mean tumor volume ([7]; 40 and 60 mg/kg IP every three days, 5 treatments): reduced the mean tumor volume | toxicity ([7]; mouse, in vivo): No sign of significant toxicity | AUC ([8]; in vivo, 5 mg/kg): 13600 ng·h/mL | half-life ([8]; plasma, intravenous, across the dose range, read-out: terminal half-life (converted)): ~960 min | Cmax ([8]; plasma, iv, 5 mg/kg, 60 min infusion): 750 ng/mL | AUC ([8]; plasma, iv, 5 mg/kg, 60 min infusion, mean of two dogs, read-out: AUC): 13600 ng·h/mL | half-life ([8]; plasma, iv, 5 mg/kg, 60 min infusion, read-out: T1/2): ~960 min | Cmax ([8]; plasma, iv, 15 mg/kg, 60 min infusion): 1150 ng/mL | AUC ([8]; plasma, iv, 15 mg/kg, 60 min infusion, mean of two dogs, read-out: AUC): 20200 ng·h/mL | half-life ([8]; plasma, iv, 15 mg/kg, 60 min infusion, read-out: T1/2): ~960 min | Cmax ([8]; plasma, iv, 30 mg/kg, 60 min infusion): 1480 ng/mL | AUC ([8]; plasma, iv, 30 mg/kg, 60 min infusion, mean of two dogs, read-out: AUC): 26000 ng·h/mL | half-life ([8]; plasma, iv, 30 mg/kg, 60 min infusion, read-out: T1/2): ~960 min | CC50 (PC-3): 2340 nM | lowest concentration tested, at which E2F-1 protein is induced (E2F-1): 0.5 µM | CC50 (HCT-116): 2290 nM | CC50 (CAOV-3 [9]): 1560 nM | fraction unbound at 10 μM [10]: ≤ 0.35 | CC50 (SK-OV-3): 1180 nM | findings ([11]; 15 mg/kg and 35 mg/kg): signs of reversible extravascular hemolysis | bilirubin ([11]; Days 2 and 23, resolved by Day 37): dose-dependent slight increase | ophthalmologic findings ([11]; dog, in vivo): no drug-related ophthalmologic findings | splenic enlargement (animals) ([11]; high-dose (35 mg/kg)): 3/8 | decreased hemoglobin ([11]; high-dose (35 mg/kg)): ~5 g/dL | mean decrease in body weight ([11]; high-dose (35 mg/kg), females): −4% | mean decrease in body weight ([11]; high-dose (35 mg/kg), males): −7% | splenic enlargement (animals) ([11]; mid-dose (15 mg/kg)): 5/8 | decreased hemoglobin ([11]; mid-dose (15 mg/kg)): ~3 g/dL | fraction unbound at 4 h [12]: 0.07 | amount of free compound in human plasma (human plasma proteins): approximately 7%
